The source of these data is ChEMBL document CHEMBL1146824, “Synthesis and evaluation of indenopyrazoles as cyclin-dependent kinase inhibitors. Part 4: Heterocycles at C3” (Bioorg Med Chem Lett, 2004).

The term IC50 denotes the concentration that gives 50% inhibition.

The subject of assay [1] is AG1523. Kind of assay: Inhibition of proliferation AG1523 (human fibroblast) cell line. In kind it is functional, cell-based.
Assay [2] can be described thus: Binding affinity for Cyclin-dependent kinase 4-cyclin E.
Assay [3] addresses Cyclin-dependent kinase 4/cyclin D1 (Homo sapiens, UniProt P11802). In words: Binding affinity for Cyclin-dependent kinase 4-cyclin D1. In kind it is protein-complex assay.
Assay [4] has as its system HCT-116. Kind of assay: Inhibition of HCT116 cellular proliferation. In kind it is functional, cell-based. Particulars: Homo sapiens.
For assay [5], the system named is HCT-116. Kind of assay: Inhibition of cellular proliferation of HCT116 cell line in the presence of human serum albumin and alpha-1-acidglycoprotein. In kind it is functional, cell-based.
For assay [6], the system named is HCT-116. In words: Inhibition of HCT116 cell proliferation in the presence of human serum albumin and alpha-1-acidglycoprotein. In kind it is functional, cell-based.
Assay [7] relates to AG1523. Kind of assay: Inhibition of AG1523 (arrested) cell proliferation. In kind it is functional, cell-based. Particulars: Homo sapiens.
Assay [8] relates to B16. In words: Inhibition of B16-F1 cell proliferation. The settings on record: Mus musculus. In kind it is functional, cell-based.
The target in assay [9] is Cyclin-dependent kinase 2/cyclin A (Homo sapiens, UniProt P24941). In words: Inhibition of Cyclin-dependent kinase 2-cyclin A. In kind it is protein-complex assay.
Assay [10] concerns the target Cyclin-dependent kinase 1/cyclin B (Homo sapiens, UniProt P06493). Kind of assay: Inhibition of cyclin-dependent kinase 1-cyclin B. In kind it is protein-complex assay.
In assay [11] the test system is NCI-H1299. In words: Inhibition of H1299 cell proliferation. The settings on record: Homo sapiens. In kind it is functional, cell-based.
The test system of assay [12] is HT-1080. In words: Inhibition of HT1080 cell proliferation. In kind it is functional, cell-based. The settings on record: Homo sapiens.
The test system of assay [13] is HMEC. In words: Inhibition of HMEC cell proliferation. In kind it is functional, cell-based. Particulars: Homo sapiens.
Assay [14] deals with L1210. Kind of assay: Inhibition of L1210 cell proliferation. In kind it is functional, cell-based. Particulars: Mus musculus.
Assay [15] has as its system MCF7. In words: Inhibition of MCF-7 cell proliferation. In kind it is functional, cell-based. The settings on record: Homo sapiens.
In assay [16] the test system is MIA PaCa-2. In words: Inhibition of MiaPaCa2 cell proliferation. In kind it is functional, cell-based. Particulars: Homo sapiens.
In assay [17] the test system is NCI-H460. In words: Inhibition of NCI-H460 cell proliferation. In kind it is functional, cell-based. Particulars: Homo sapiens.
The subject of assay [18] is NCI-H358. Kind of assay: Inhibition of NCI-H358 cell proliferation. Particulars: Homo sapiens. In kind it is functional, cell-based.
In assay [19] the test system is PC-3. Kind of assay: Inhibition of PC3 cell proliferation. Particulars: Homo sapiens. In kind it is functional, cell-based.
Assay [20] addresses cAMP-dependent protein kinase (PKA) (Homo sapiens, UniProt P22694+P17612+P22612). In words: Inhibition of protein kinase A. In kind it is protein assay.
For assay [21], the target named is Tyrosine-protein kinase ABL1 (Homo sapiens, UniProt P00519). Kind of assay: Inhibition of c-Abl tyrosine kinase.
Sequence of Tyrosine-protein kinase ABL1 (P00519 whole entry): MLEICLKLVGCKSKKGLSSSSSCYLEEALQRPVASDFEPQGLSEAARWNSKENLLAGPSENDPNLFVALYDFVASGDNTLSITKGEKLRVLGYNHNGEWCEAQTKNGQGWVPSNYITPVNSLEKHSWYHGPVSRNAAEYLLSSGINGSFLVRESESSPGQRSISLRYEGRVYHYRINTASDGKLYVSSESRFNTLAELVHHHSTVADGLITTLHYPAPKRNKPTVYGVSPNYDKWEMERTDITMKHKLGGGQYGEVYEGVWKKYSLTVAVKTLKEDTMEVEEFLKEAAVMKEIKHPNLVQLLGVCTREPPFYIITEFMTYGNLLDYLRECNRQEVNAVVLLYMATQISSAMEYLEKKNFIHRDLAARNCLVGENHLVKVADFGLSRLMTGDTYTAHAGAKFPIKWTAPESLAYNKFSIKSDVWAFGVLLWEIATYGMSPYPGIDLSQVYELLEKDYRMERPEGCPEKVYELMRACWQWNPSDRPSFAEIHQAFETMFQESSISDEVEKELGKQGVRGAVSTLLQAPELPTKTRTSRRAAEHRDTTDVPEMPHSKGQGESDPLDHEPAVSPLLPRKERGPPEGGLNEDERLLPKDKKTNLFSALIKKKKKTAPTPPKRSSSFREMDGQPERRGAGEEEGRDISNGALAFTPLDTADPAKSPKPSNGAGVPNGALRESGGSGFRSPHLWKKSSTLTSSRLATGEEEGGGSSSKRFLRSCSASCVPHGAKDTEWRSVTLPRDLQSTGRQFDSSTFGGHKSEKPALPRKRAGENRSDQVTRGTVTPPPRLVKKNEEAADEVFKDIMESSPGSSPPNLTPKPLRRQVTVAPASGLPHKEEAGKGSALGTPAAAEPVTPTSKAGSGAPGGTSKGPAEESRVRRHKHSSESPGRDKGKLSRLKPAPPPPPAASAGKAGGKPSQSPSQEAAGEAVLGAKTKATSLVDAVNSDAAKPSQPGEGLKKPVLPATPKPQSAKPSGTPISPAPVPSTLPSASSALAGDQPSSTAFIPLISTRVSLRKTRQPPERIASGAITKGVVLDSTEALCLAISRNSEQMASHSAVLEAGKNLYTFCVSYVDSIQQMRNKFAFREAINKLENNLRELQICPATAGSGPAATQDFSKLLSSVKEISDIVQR
The subject of assay [22] is HT-29. Kind of assay: Inhibition of HT-29 cell proliferation. In kind it is functional, cell-based. Particulars: Homo sapiens.
Assay [23] deals with SKUT-1A. In words: Inhibition of Skut 1A cell proliferation. In kind it is functional, cell-based. The settings on record: Homo sapiens.

The structures appear in SMILES notation. Where only a bound is given, the exact number is not on record here.

Sequence of Cyclin-dependent kinase 4/cyclin D1 (P11802 whole entry): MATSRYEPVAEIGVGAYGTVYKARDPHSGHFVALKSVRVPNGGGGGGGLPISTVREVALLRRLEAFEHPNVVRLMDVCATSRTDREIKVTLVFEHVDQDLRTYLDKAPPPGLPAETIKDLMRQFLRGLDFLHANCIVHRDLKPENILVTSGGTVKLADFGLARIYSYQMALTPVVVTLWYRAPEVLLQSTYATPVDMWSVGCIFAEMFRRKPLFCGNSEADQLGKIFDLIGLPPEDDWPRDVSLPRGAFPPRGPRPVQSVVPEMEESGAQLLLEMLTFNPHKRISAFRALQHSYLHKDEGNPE
Sequence of Cyclin-dependent kinase 4/cyclin D1 (P24385 whole entry, further chain): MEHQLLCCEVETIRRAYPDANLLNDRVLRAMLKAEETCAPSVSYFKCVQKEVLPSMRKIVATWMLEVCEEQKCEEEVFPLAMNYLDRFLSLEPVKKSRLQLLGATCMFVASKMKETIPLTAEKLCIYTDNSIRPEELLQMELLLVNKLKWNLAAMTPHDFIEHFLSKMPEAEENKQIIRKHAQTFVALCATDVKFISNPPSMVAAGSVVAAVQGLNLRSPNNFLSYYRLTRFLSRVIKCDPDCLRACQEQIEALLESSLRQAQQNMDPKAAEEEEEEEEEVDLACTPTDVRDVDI

With `Cc1ccc(-c2n[nH]c3c2C(=O)c2c(NC(=O)NN(C)C)cccc2-3)s1`, the concentration for half-maximal inhibition (IC50) in assay [1] amounted to 640 nM; in [2], 25 nM; in assay [3], 81 nM; in assay [4], 48 nM.
Consider `CCN1CCN(C(=O)c2ccc(-c3[nH]nc4c3C(=O)c3c(NC(=O)NN5CCOCC5)cccc3-4)s2)CC1`, for which the IC50 in assay [2] stood at 19 nM; in assay [3], 5 nM; in [4], 63 nM; in assay [5] it was 14300 nM.
For the compound `Cc1cc(-c2[nH]nc3c2C(=O)c2c(NC(=O)NN4CCOCC4)cccc2-3)c(C)s1`, the IC50 was 345 nM in assay [1], under 8 nM in assay [2], 125 nM in assay [3] and 25 nM in assay [4].
Take `O=C(Nc1cccc2c1C(=O)c1c(-c3ccc(C(=O)NCCN4CCCC4)s3)n[nH]c1-2)NN1CCOCC1`: the IC50 is 680 nM in assay [1], 25 nM in [2], 23 nM in assay [3] and 475 nM in assay [4].
With `O=C(Nc1cccc2c1C(=O)c1c(-c3ccc(C(=O)N4CCCCCC4)s3)n[nH]c1-2)NN1CCOCC1`, the IC50 was 23 nM in [2], 17 nM in [3], 8320 nM in assay [6] and 53 nM in [4].
Turning to `Cc1nc(C)c(-c2[nH]nc3c2C(=O)c2c(NC(=O)NN4CCOCC4)cccc2-3)s1`, the IC50 in assay [1] was over 19000 nM; in [2], 9 nM; in assay [3], over 370 nM; in assay [6], 500 nM; in [4] it was 8 nM.
On to `O=C(Nc1cccc2c1C(=O)c1c(-c3ccc(C(=O)NCCN4CCCCC4)s3)n[nH]c1-2)NN1CCOCC1`, for which the IC50 in assay [1] amounted to 255 nM; in assay [2] it was 31 nM; in assay [3] it was 22 nM; in assay [4] it was 20 nM.
Regarding `CCOC(=O)c1ccc(-c2[nH]nc3c2C(=O)c2c(NC(=O)NN4CCN(C)CC4)cccc2-3)s1`, the figures for the IC50 in assay [2], in assay [3] and in assay [4] were 36 nM, 30 nM and 46 nM, respectively.
As for `CCN1CCCN(C(=O)c2ccc(-c3[nH]nc4c3C(=O)c3c(NC(=O)NN5CCOCC5)cccc3-4)s2)CC1`, the IC50 in assay [2] amounted to 14 nM; in assay [3], 7 nM; in assay [6], 7100 nM; in assay [4], 33 nM.
For the compound `CN1CCN(C(=O)c2ccc(-c3[nH]nc4c3C(=O)c3c(NC(=O)NN5CCOCC5)cccc3-4)s2)CC1`, the IC50 in assay [1] was 485 nM; in assay [2], 32 nM; in [3] it was 10 nM; in assay [4], 110 nM; in assay [5] it was 9940 nM.
In the case of `CN(C)NC(=O)Nc1cccc2c1C(=O)c1c(-c3cccs3)n[nH]c1-2`, the IC50 in [1] came to 905 nM; in [2] it was 36 nM; in [3], 340 nM; in [4] it was 75 nM.
The matching figures for `Cc1cc(-c2n[nH]c3c2C(=O)c2c(NC(=O)NN(C)C)cccc2-3)c(C)s1`: 1500 nM, 26 nM, 515 nM and 110 nM.
Consider `CN(C)C1CCCN(C(=O)c2ccc(-c3[nH]nc4c3C(=O)c3c(NC(=O)NN5CCOCC5)cccc3-4)s2)C1` (configuration not stated), for which the IC50 in assay [2] amounted to 24 nM; in assay [3] it was 13 nM; in assay [4] it was 188 nM; in [5], 11800 nM.
As for `CN(C)NC(=O)Nc1cccc2c1C(=O)c1c(-c3ccco3)n[nH]c1-2`, the results for the half-inhibitory concentration (IC50) in [2], in assay [3] and in [4] were 26 nM, 635 nM and 160 nM, respectively.
For the compound `CCOC(=O)c1ccc(-c2[nH]nc3c2C(=O)c2c(NC(=O)NN(C)C)cccc2-3)s1`, the IC50 in assay [1] came to 2800 nM; in assay [2], 28 nM; in assay [3], 185 nM; in assay [4] it was 380 nM.
Consider `Cc1nc(C)c(-c2n[nH]c3c2C(=O)c2c(NC(=O)NN(C)C)cccc2-3)s1`, for which the IC50 came out at 4 nM in [2] and 150 nM in [3].
Turning to `CN(C)NC(=O)Nc1cccc2c1C(=O)c1c(-c3ccsc3)n[nH]c1-2`, the IC50 in assay [1] is 605 nM; in [2], 24 nM; in assay [3], 107 nM; in [4], 68 nM.
For the compound `O=C(Nc1cccc2c1C(=O)c1c-2n[nH]c1-c1csc(Cl)c1)NN1CCOCC1`, the IC50 in assay [1] was found to be 385 nM; in [2], 10 nM; in assay [3] it was 7 nM; in [4] it was 35 nM.
Turning to `O=C(Nc1cccc2c1C(=O)c1c(-c3ccc(C(=O)N4CCCCC4)s3)n[nH]c1-2)NN1CCOCC1`, the concentration for half-maximal inhibition (IC50) is 25 nM in assay [2], 22 nM in [3], 52 nM in assay [4] and 16800 nM in [5].
`O=C(Nc1cccc2c1C(=O)c1c(-c3ccc(C(=O)N4CCCNCC4)s3)n[nH]c1-2)NN1CCOCC1`: the IC50 in [2] was 6 nM; in [3] it was 3 nM; in [6], over 19700 nM; in assay [4], 195 nM.
Turning to `CCOC(=O)c1ccc(-c2[nH]nc3c2C(=O)c2c(NC(=O)NN4CCOCC4)cccc2-3)s1`, the IC50 was over 17000 nM in assay [1]; 31 nM in [2]; 30 nM in assay [3]; 3200 nM in assay [6]; 110 nM in [4].
Consider `CN(C)NC(=O)Nc1cccc2c1C(=O)c1c(-c3csc(Cl)c3)n[nH]c1-2`, for which the IC50 in [1] was determined as 615 nM; in [2], 7 nM; in assay [3] it was 21 nM; in [4] it was 64 nM.
Take `O=C(Nc1cccc2c1C(=O)c1c(-c3ccc(C(=O)N4CCNCC4)s3)n[nH]c1-2)NN1CCOCC1`: the IC50 worked out at 38 nM in [2], 4 nM in assay [3], 700 nM in [4] and 15400 nM in assay [5].
As for `CN(C)C1CCN(C(=O)c2ccc(-c3[nH]nc4c3C(=O)c3c(NC(=O)NN5CCOCC5)cccc3-4)s2)CC1`, the concentration for half-maximal inhibition (IC50) is 1000 nM in assay [1]; 23 nM in assay [2]; 8 nM in assay [3]; 210 nM in assay [4]; over 15100 nM in assay [5].
In the case of `Cc1ccc(-c2[nH]nc3c2C(=O)c2c(NC(=O)NN4CCOCC4)cccc2-3)s1`, the IC50 was found to be 285 nM in assay [1], 10 nM in assay [2], 23 nM in assay [3] and 25 nM in assay [4].
As to `Cc1nc(C)c(-c2[nH]nc3c2C(=O)c2c(NC(=O)NN4CCN(C)CC4)cccc2-3)s1`, the IC50 is over 21000 nM in assay [7]; over 21000 nM in assay [1]; 160 nM in assay [8]; 13 nM in assay [9]; 6 nM in assay [10]; 46 nM in [3]. Further, the IC50 was found to be 260 nM in assay [6]; 12 nM in assay [11]; 14 nM in [4]; 30 nM in assay [12]; 55 nM in assay [13]; 105 nM in [14]. Besides, the IC50 was 23 nM in assay [15]; 26 nM in assay [16]; 104 nM in [17]; 18 nM in assay [18]; 125 nM in [19]; over 42000 nM in assay [20]. In addition, the IC50 came out at 17600 nM in assay [21], 87 nM in [22] and 25 nM in [23].
With `CN(C)CCNC(=O)c1ccc(-c2[nH]nc3c2C(=O)c2c(NC(=O)NN4CCOCC4)cccc2-3)s1`, the IC50 in assay [2] was 21 nM; in assay [3], 15 nM; in assay [4], over 800 nM.
The matching figures for `NC1CCN(C(=O)c2ccc(-c3[nH]nc4c3C(=O)c3c(NC(=O)NN5CCOCC5)cccc3-4)s2)C1` (configuration not stated): 39 nM, 35 nM and over 800 nM.
Consider `CN(C)C1CCN(C(=O)c2ccc(-c3[nH]nc4c3C(=O)c3c(NC(=O)NN5CCOCC5)cccc3-4)s2)C1` (configuration not stated), for which the half-inhibitory concentration (IC50) in assay [1] was 330 nM; in [2], 44 nM; in assay [3], 12 nM; in assay [6] it was 2540 nM; in assay [4], 64 nM.
As for `O=C(Nc1cccc2c1C(=O)c1c(-c3ccc(C(=O)NCCN4CCOCC4)s3)n[nH]c1-2)NN1CCOCC1`, the IC50 in [2] was 51 nM; in [3] it was 86 nM; in assay [4], 860 nM.
Turning to `COc1ccc(-c2[nH]nc3c2C(=O)c2c(NC(=O)NN(C)C)cccc2-3)s1`, the half-maximal inhibitory concentration (IC50) was 1550 nM in assay [1], 32 nM in assay [2], 84 nM in assay [3] and 130 nM in assay [4].
In the same order, the values of `Cc1cc(-c2n[nH]c3c2C(=O)c2c(NC(=O)NN4CCN(C)CC4)cccc2-3)c(C)s1` are 205 nM, 12 nM, 90 nM and 24 nM.
With `CNC1CCN(C(=O)c2ccc(-c3[nH]nc4c3C(=O)c3c(NC(=O)NN5CCOCC5)cccc3-4)s2)C1` (configuration not stated), the 50% inhibitory concentration (IC50) in assay [2] turned out to be 11 nM; in assay [3] it was 5 nM; in assay [6], 8500 nM; in assay [4], 230 nM.
`CN1CCCN(C(=O)c2ccc(-c3[nH]nc4c3C(=O)c3c(NC(=O)NN5CCOCC5)cccc3-4)s2)CC1`: the IC50 in assay [1] came to 63 nM; in assay [2] it was 15 nM; in assay [3] it was 4 nM; in assay [6], 870 nM; in assay [4] it was 19 nM.
